Results published in patent US8987334B2, “Cosmetic and pharmaceutical formulations of calixarene molecules” (priority 2008, dated 2015).

Assay: Transcutaneous passage kinetics of calixarene in Franz cell
Assay type: in vitro ADME, pig
Settings: released from 1 ml nanoemulsion loaded with 4 mg/g calixarene; 24 hours exposure; occlusive; HPLC LD=17 ng/ml, LQ=52 ng/ml

1,3,5-O-Me-2,4,6-OCH2COOH-p-tert-butylcalix[6]arene [calixarene]
transcutaneous passage of calixarene: did not pass through the skin
